{
  "source": "patent EP4806891A1",
  "about": "(Kangbaida (Sichuan) Biotechnology Co., Ltd., priority 2023, dated 2025)",
  "note": "pIC50: −log10 of the molar value.",
  "data": [
    {"target": "T1, HEK-Blue-hTLR9 cells (Homo sapiens, UniProt Q9NR96)", "T1 construct": "expressed in transfected cells; host or cells: HEK-Blue-hTLR9 cells (HEK293-derived reporter line)", "T1 sequence (Q9NR96 26-1032)": "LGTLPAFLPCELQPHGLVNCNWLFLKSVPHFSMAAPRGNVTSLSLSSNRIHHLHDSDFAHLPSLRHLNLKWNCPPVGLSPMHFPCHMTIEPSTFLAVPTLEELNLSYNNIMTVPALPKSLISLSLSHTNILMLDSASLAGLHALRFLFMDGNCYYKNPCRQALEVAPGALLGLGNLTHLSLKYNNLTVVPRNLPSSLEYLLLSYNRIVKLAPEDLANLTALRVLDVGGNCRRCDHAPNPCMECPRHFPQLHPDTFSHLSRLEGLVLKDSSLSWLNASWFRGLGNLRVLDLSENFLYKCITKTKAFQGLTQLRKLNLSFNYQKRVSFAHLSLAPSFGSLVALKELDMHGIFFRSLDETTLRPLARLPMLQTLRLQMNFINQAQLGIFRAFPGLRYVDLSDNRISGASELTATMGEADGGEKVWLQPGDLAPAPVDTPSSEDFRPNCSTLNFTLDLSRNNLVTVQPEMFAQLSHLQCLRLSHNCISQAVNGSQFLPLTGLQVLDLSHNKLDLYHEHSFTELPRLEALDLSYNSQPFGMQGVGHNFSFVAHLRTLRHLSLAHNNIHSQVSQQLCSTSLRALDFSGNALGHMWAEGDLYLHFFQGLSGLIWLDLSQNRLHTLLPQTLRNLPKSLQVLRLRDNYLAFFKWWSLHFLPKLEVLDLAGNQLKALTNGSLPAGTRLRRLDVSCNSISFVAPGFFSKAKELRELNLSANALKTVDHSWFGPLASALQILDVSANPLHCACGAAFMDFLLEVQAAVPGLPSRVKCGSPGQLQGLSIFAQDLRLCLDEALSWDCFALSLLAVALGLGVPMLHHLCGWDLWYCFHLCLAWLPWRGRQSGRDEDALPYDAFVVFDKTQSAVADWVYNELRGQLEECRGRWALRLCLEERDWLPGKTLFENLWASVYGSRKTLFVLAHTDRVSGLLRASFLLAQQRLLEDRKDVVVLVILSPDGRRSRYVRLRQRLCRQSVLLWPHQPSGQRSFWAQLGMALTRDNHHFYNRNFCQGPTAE", "assay": "HEK-Blue-hTLR9 cell inhibition assay", "type": "cell-based", "details": "ODN2006 1 µM, 16 h, OD 620 nm, read-out: TLR9 IC50", "procedure": "HEK-Blue-hTLR7/8/9 cell inhibition assay\n1. HEK-Blue-hTLR7/8 cells (1 × 10^4 cells/well) and HEK-Blue-hTLR9 cells (1.5 × 10^4 cells/well) were seeded in a 384-well cell culture plate, with a volume of 30 µL per well. The plate was incubated at 37°C in a 5% CO2 incubator for 4 h. 2. The compound was prepared with DMSO and diluted in DMEM medium to 10 concentrations (1:3 dilution), with final concentrations of 10000, 3333.3, 1111.1, 370.4, 123.5, 41.2, 13.7, 4.6, 1.5, and 0.5 nM; R848 was prepared with DMSO and diluted in DMEM medium, with final concentrations of 0.8 µM (HEK-Blue-hTLR7) and 3 µM (HEK-Blue-hTLR8); ODN2006 was prepared with endotoxin-free water and diluted in DMEM medium, with a final concentration of 1 µM. 3. Cells treated with DMSO were used as the blank control group, while cells treated solely with Resiquimod (R848) were used as the positive control group for HEK-Blue-hTLR7/8, and cells treated solely with ODN2006 were used as the positive control group for HEK-Blue-hTLR9. Cells treated with the test compound together with R848 or ODN2006 were used as the test group. Two parallel wells were set for each group and were placed at 37°C in a 5% CO2 incubator for incubation. 4. After being incubated for 4 h, the 384-well plate of HEK-Blue-hTLR7/8 was taken out from the incubator, and R848 alone or both R848 and the diluted compound were separately added into each well. The plate was placed at 37°C in a 5% CO2 incubator for incubation for 16 h; the 384-well plate of HEK-Blue-hTLR9 was taken out from the incubator, and ODN2006 alone or both ODN2006 and the diluted compound were added separately to each well. The plate was incubated at 37°C in a 5% CO2 incubator for 16 h. 5. After being incubated for 16 h, the 384-well plate was removed from the incubator and centrifuged at 1000 rpm for 1 minute. The optical density value of each well at 620 nm was measured using a multifunctional microplate reader. 6. The cell inhibition rate was calculated as (1-(OD620 test group-OD620 blank group)/(OD620 positive group-OD620 blank group))×100%, and the half maximal inhibitory concentration (IC50) was calculated through curve fitting. Table 1: Activity of the compounds of the present disclosure in HEK-Blue-hTLR7/8/9 cellular assays", "values": [
      {"smiles": "Cn1c(CN2CCCC2)nnc1[C@]12CN(c3ccc(C#N)c4ncccc34)C[C@@]1(C(F)(F)F)C2", "note": "[Compound 44, 5-((1S,5R)-1-(4-methyl-5-(pyrrolidin-1-ylmethyl)-4H-1,2,4-triazol-3-yl)-5-(trifluoromethyl)-3-azabicyclo[3.1.0]hexan-3-yl)quinoline-8-carbonitrile]", "pIC50": "< 5.00"},
      {"smiles": "CN(C)CC#Cc1nnc([C@]23CN(c4ccc(C#N)c5ncccc45)C[C@@]2(C(F)(F)F)C3)o1", "note": "[Compound 25, 5-((1S,5R)-1-(5-(3-(dimethylamino)prop-1-yn-1-yl)-1,3,4-oxadiazol-2-yl)-5-(trifluoromethyl)-3-azabicyclo[3.1.0]hexan-3-yl)quinoline-8-carbonitrile]", "pIC50": "> 6.00"},
      {"smiles": "CN1CCC(c2nnc([C@]34CN(c5ccc(C#N)c6ncnn56)C[C@@]3(C(F)(F)F)C4)o2)CC1", "note": "[Compound 91, 5-((1S,5R)-1-(5-(1-methylpiperidin-4-yl)-1,3,4-oxadiazol-2-yl)-5-(trifluoromethyl)-3-azabicyclo[3.1.0]hexan-3-yl)-[1,2,4]triazolo[1,5-a]pyridine-8-carbonitrile]", "pIC50": "< 5.00"},
      {"smiles": "CN1[C@@H]2CC[C@H]1C[C@H](c1nnc([C@]34CN(c5ccc(C(F)(F)F)c6ncccc56)C[C@@]3(C(F)(F)F)C4)o1)C2", "note": "[Compound 79, 2-((1R,3S,5S)-8-methyl-8-azabicyclo[3.2.1]octan-3-yl)-5-((1S,5R)-5-(trifluoromethyl)-3-(8-(trifluoromethyl)quinolin-5-yl)-3-azabicyclo[3.1.0]hexan-1-yl)-1,3,4-oxadiazole]", "pIC50": "< 6.00"},
      {"smiles": "CN1CCN(c2nnc([C@]34CN(c5ccc(C#N)c6ncccc56)C[C@@]3(C(F)(F)F)C4)o2)CC1", "note": "[Compound 1, 5-((1S,5R)-1-(5-(4-methylpiperazin-1-yl)-1,3,4-oxadiazol-2-yl)-5-(trifluoromethyl)-3-azabicyclo[3.1.0]hexan-3-yl)quinoline-8-carbonitrile]", "pIC50": "< 5.00"},
      {"smiles": "CN(C)[C@H]1CC[C@H](c2nnc([C@]34CN(c5ccc(C#N)c6ncccc56)C[C@@]3(C(F)(F)F)C4)o2)CC1", "note": "[Compound 21, 5-((1S,5R)-1-(5-((1R,4S)-4-(dimethylamino)cyclohexyl)-1,3,4-oxadiazol-2-yl)-5-(trifluoromethyl)-3-azabicyclo[3.1.0]hexan-3-yl)quinoline-8-carbonitrile]", "pIC50": "< 6.00"},
      {"smiles": "CN1CCC(n2cnc([C@]34CN(c5ccc(C#N)c6ncccc56)C[C@@]3(C(F)(F)F)C4)n2)CC1", "note": "[Compound 23, 5-((1S,5R)-1-(1-(1-methylpiperidin-4-yl)-1H-1,2,4-triazol-3-yl)-5-(trifluoromethyl)-3-azabicyclo[3.1.0]hexan-3-yl)quinoline-8-carbonitrile]", "pIC50": "< 6.00"},
      {"smiles": "Cc1cc(N2CC3(c4nnc(C5CCN(C)CC5)o4)C[C@]3(C(F)(F)F)C2)c2cnn(C)c2n1", "note": "(stereo partly drawn) [Compound 2, 2-((5R)-3-(1,6-dimethyl-1H-pyrazolo[3,4-b]pyridin-4-yl)-5-(trifluoromethyl)-3-azabicyclo[3.1.0]hexan-1-yl)-5-(1-methylpiperidin-4-yl)-1,3,4-oxadiazole]", "pIC50": "< 5.00"},
      {"smiles": "N#Cc1ccc(N2C[C@]3(c4nnc(C56CCC(NC(=O)[C@@H]7COCCN7)(CC5)CC6)o4)C[C@]3(C(F)(F)F)C2)c2cccnc12", "note": "[Compound 54, (S)-N-(4-(5-((1S,5R)-3-(8-cyanoquinolin-5-yl)-5-(trifluoromethyl)-3-azabicyclo[3.1.0]hexan-1-yl)-1,3,4-oxadiazol-2-yl)bicyclo[2.2.2]octan-1-yl)morpholine-3-carboxamide]", "pIC50": "< 6.00"},
      {"smiles": "CN1CCC(c2nnc([C@]34CN(c5ccc(C#N)c6ncccc56)C[C@@]3(C(F)(F)F)C4)n2C)CC1", "note": "[Compound 5, 5-((1S,5R)-1-(4-methyl-5-(1-methylpiperidin-4-yl)-4H-1,2,4-triazol-3-yl)-5-(trifluoromethyl)-3-azabicyclo[3.1.0]hexan-3-yl)quinoline-8-carbonitrile]", "pIC50": "< 6.00"},
      {"smiles": "N#Cc1ccc(N2C[C@]3(c4nnc(C5CCNCC5F)o4)C[C@]3(C(F)(F)F)C2)c2cccnc12", "note": "(stereo partly shown) [Compound 33]", "pIC50": "< 6.00"},
      {"smiles": "CN1CC(Cc2nnc([C@]34CN(c5ccc(C#N)n6ncc(F)c56)C[C@@]3(C(F)(F)F)C4)o2)C1", "note": "[Compound 30, 3-fluoro-4-((1S,5R)-1-(5-((1-methylazetidin-3-yl)methyl)-1,3,4-oxadiazol-2-yl)-5-(trifluoromethyl)-3-azabicyclo[3.1.0]hexan-3-yl)pyrazolo[1,5-a]pyridine-7-carbonitrile]", "pIC50": "< 6.00"},
      {"smiles": "N#Cc1ccc(N2C[C@]3(c4nnc(N)o4)C[C@]3(C(F)(F)F)C2)c2cccnc12", "note": "[Compound 7, 5-((1S,5R)-1-(5-amino-1,3,4-oxadiazol-2-yl)-5-(trifluoromethyl)-3-azabicyclo[3.1.0]hexan-3-yl)quinoline-8-carbonitrile]", "pIC50": "< 5.00"},
      {"smiles": "N#Cc1ccc(N2C[C@]3(c4nnc(C5CCN(CC(N)=O)CC5)o4)C[C@]3(C(F)(F)F)C2)c2cccnc12", "note": "[Compound 17, 2-(4-(5-((1S,5R)-3-(8-cyanoquinolin-5-yl)-5-(trifluoromethyl)-3-azabicyclo[3.1.0]hexan-1-yl)-1,3,4-oxadiazol-2-yl)piperidin-1-yl)acetamide]", "pIC50": "< 5.00"},
      {"smiles": "N#Cc1ccc(N2C[C@]3(c4nnc(CN5CCCC5)o4)C[C@]3(C(F)(F)F)C2)c2cccnc12", "note": "[Compound 41, 5-((1S,5R)-1-(5-(Pyrrolidin-1-ylmethyl)-1,3,4-oxadiazol-2-yl)-5-(trifluoromethyl)-3-azabicyclo[3.1.0]hexan-3-yl)quinoline-8-carbonitrile]", "pIC50": "< 5.00"},
      {"smiles": "CN1CCC(C)(c2nnc([C@]34CN(c5ccc(C#N)c6ncccc56)C[C@@]3(C(F)(F)F)C4)o2)CC1", "note": "[Compound 8, 5-((1S,5R)-1-(5-(1,4-dimethylpiperidin-4-yl)-1,3,4-oxadiazol-2-yl)-5-(trifluoromethyl)-3-azabicyclo[3.1.0]hexan-3-yl)quinoline-8-carbonitrile]", "pIC50": "< 6.00"},
      {"smiles": "N#Cc1ccc(N2C[C@]3(c4nnc(CC5CNC5)o4)C[C@]3(C(F)(F)F)C2)c2cccnc12", "note": "[Compound 35, 5-((1S,5R)-1-(5-(azetidin-3-ylmethyl)-1,3,4-oxadiazol-2-yl)-5-(trifluoromethyl)-3-azabicyclo[3.1.0]hexan-3-yl)quinoline-8-carbonitrile]", "pIC50": "< 6.00"},
      {"smiles": "N#Cc1ccc(N2C[C@]3(c4nnc(C5=CCNC5)o4)C[C@]3(C(F)(F)F)C2)c2cccnc12", "note": "[Compound 22, 5-((1S,5R)-1-(5-(2,5-dihydro-1H-pyrrol-3-yl)-1,3,4-oxadiazol-2-yl)-5-(trifluoromethyl)-3-azabicyclo[3.1.0]hexan-3-yl)quinoline-8-carbonitrile]", "pIC50": "< 5.00"},
      {"smiles": "CN1CCC(c2nnc([C@]34CN(c5ccc(C#N)n6ncc(Cl)c56)C[C@@]3(C(F)(F)F)C4)o2)CC1", "note": "[Compound 84, 3-chloro-4-((1S,5R)-1-(5-(1-methylpiperidin-4-yl)-1,3,4-oxadiazol-2-yl)-5-(trifluoromethyl)-3-azabicyclo[3.1.0]hexan-3-yl)pyrazolo[1,5-a]pyridine-7-carbonitrile]", "pIC50": "< 6.00"}
    ]}
  ]
}
